The test system of test [1] is B cells. The test is described as follows: B cell proliferation assay ([3H]-thymidine incorporation, anti-human IgM stimulation). The conditions noted are these: 72 h, purified human B cells, goat F(ab')2 anti-human IgM 10 μg/ml, three days plus 12 hrs [3H]-thymidine. The test is classed as cell-based. How it is done: To acquire B cells, human PBMC were isolated from the peripheral blood of normal, drug free donors by standard density gradient centrifugation on Ficoll-Hypague (GE Healthcare, Piscataway, N.J.) and incubated with anti-CD19 microbeads (Miltenyi Biotech, Auburn, Calif.). The B cells were then purified by positive immunosorting using an autoMacs (Miltenyi Biotech) according to the manufacture's instruction.
The purified B cells (2×10^5/well/200 μL) were cultured in 96-well ultra-low binding plates (Corning, Corning, N.Y.) in RPMI1640, 10% FBS and goat F(ab′)2 anti-human IgM (10 μg/ml) (Invitrogen, Carlsbad, Calif.), in the presence of different amount of test compounds, for three days. [^3H]-thymidine (1 μCi/well) (PerkinElmer, Boston, Mass.) in PBS was then added to the B cell cultures for an additional 12 hrs before the incorporated radioactivity was separated by filtration with water through GF/B filters (Packard Bioscience, Meriden, Conn.) and measured by liquid scintillation counting with a TopCount (Packard Bioscience). […] See Table 2 for data related to compounds of the invention.
For orientation: Dividing cells build labelled thymidine or BrdU into new DNA.

Test [2] addresses T1, PI3Kδ (p110δ/p85α) (Homo sapiens, UniProt O00329).
T1 construct: purchased Millipore (Bedford, Mass.)
The experiment in a line: PI3Kδ scintillation proximity assay (enzyme assay A). The format is biochemical. Conditions: 20 μM PIP2, 20 μM ATP, 4 nM PI3Kδ, 210 minutes, room temperature; read-out: IC50 data for PI3Kδ enzyme assay A (PI3Kd Enzyme Assay A). The source says: Materials: [γ-^33P]ATP (10 mCi/mL) was purchased from PerkinElmer (Waltham, Mass.). Lipid kinase substrate, D-myo-Phosphatidylinositol 4,5-bisphosphate (PtdIns(4,5)P2)D (+)-sn-1,2-di-O-octanoylglyceryl, 3-O-phospho linked (PIP2), CAS 204858-53-7, was purchased from Echelon Biosciences (Salt Lake City, Utah). PI3Kδ (p110δ/p85α) was purchased from Millipore (Bedford, Mass.). ATP, MgCl2, DTT, EDTA, MOPS and CHAPS were purchased from Sigma-Aldrich (St. Louis, Mo.). Wheat Germ Agglutinin (WGA) YSi SPA Scintillation Beads was purchased from GE healthcare life sciences (Piscataway, N.J.).
Assay: The kinase reaction was conducted in polystyrene 384-well matrix white plate from Thermo Fisher Scientific in a final volume of 25 μL. Inhibitors were first diluted serially in DMSO and added to the plate wells before the addition of other reaction components. The final concentration of DMSO in the assay was 0.5%. The PI3K assays were carried out at room temperature in 20 mM MOPS, pH 6.7, 10 mM MgCl2, 5 mM DTT and CHAPS 0.03%. Reactions were initiated by the addition of ATP, the final reaction mixture consisted of 20 μM PIP2, 20 μM ATP, 0.2 μCi [γ-^33P] ATP, 4 nM PI3Kδ. Reactions were incubated for 210 minutes and terminated by the addition of 40 μL SPA beads suspended in quench buffer: 150 mM potassium phosphate pH 8.0, 20% glycerol. 25 mM EDTA, 400 μM ATP. The final concentration of SPA beads is 1.0 mg/mL. After the plate sealing, plates were shaken overnight at room temperature and centrifuged at 1800 rpm for 10 minutes, the radioactivity of the product was determined by scintillation counting on Topcount (PerkinElmer). IC50 determination was performed by fitting the curve of percent control activity versus the log of the inhibitor concentration using the GraphPad Prism 3.0 software.
In general terms: SPA uses beads or plates that emit light when radiolabelled molecules are held near them.

Each structure is given as a SMILES string. Where a name gives a salt, the structure may show the parent alone. A value given as a limit tells only on which side of the number the result lay.

T1 sequence (O00329 whole entry): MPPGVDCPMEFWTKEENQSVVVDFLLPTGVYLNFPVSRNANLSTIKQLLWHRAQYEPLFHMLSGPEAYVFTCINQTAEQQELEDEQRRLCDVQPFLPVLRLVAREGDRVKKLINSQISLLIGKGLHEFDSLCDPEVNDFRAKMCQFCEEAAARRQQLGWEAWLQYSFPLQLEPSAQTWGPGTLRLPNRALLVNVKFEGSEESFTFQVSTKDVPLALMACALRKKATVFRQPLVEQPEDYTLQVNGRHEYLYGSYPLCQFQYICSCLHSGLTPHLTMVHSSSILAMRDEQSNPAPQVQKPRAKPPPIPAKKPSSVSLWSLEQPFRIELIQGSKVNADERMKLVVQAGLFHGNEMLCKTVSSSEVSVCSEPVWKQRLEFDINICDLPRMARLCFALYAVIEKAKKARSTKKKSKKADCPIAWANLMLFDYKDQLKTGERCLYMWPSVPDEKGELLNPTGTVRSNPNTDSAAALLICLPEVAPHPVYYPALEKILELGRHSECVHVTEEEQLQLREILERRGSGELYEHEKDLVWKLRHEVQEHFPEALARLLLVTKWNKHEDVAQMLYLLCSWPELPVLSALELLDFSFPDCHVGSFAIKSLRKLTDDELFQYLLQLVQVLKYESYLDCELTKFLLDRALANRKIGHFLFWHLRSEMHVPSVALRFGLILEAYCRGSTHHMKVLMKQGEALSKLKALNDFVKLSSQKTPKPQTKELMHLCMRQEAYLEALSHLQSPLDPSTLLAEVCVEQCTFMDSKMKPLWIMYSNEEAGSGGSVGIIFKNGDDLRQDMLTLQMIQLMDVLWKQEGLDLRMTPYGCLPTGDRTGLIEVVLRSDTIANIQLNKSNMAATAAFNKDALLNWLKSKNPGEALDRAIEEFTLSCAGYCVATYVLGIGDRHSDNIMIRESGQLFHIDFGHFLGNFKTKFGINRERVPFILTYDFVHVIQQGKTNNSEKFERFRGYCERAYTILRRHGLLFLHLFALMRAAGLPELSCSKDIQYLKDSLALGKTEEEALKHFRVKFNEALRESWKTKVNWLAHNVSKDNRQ
T1 sequence (P27986 whole entry partner): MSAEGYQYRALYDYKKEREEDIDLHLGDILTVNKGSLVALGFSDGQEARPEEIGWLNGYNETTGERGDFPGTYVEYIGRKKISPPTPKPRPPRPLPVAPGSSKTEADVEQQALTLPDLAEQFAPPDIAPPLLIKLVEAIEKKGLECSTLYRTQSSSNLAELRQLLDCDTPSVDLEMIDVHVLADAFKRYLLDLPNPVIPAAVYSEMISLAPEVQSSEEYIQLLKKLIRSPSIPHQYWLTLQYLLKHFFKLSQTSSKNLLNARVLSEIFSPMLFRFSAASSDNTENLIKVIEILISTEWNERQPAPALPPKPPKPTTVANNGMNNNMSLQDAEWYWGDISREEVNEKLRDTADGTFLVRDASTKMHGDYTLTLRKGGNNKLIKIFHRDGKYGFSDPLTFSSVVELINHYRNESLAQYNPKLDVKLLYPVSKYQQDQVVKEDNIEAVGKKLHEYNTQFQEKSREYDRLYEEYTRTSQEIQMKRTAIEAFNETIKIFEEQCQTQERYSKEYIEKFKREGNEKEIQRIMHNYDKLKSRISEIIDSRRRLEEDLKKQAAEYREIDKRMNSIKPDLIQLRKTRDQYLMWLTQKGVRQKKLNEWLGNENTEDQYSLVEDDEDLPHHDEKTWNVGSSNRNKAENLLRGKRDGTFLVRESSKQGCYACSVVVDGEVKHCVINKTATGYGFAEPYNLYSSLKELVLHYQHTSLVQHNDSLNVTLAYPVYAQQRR

The term IC50 denotes the concentration that inhibits the measured activity by half. As for `CC(Nc1ncnc2[nH]cnc12)c1nc2cccc(Cl)n2c1-c1cccc(F)c1` (stereo not shown) [Example 7, N-{1-[5-Chloro-3-(3-fluorophenyl)imidazo[1,2-a]pyridin-2-yl]ethyl}-9H-purin-6-amine tris(trifluoroacetate)], the IC50 is less than 500 nM in test [1] and less than 200 nM in test [2].
The matching figures for `CC(Nc1ncnc2[nH]cnc12)c1nc2ccccn2c1-c1ccccc1F` (stereo not shown) [Example 19, N-{1-[3-(2-Fluorophenyl)imidazo[1,2-a]pyridin-2-yl]ethyl}-9H-purin-6-amine]: less than 500 nM and 200 to 500 nM.
Take `CC(Nc1ncnc2[nH]cnc12)c1nc2c(C#N)cccn2c1-c1cccc(F)c1` (stereo not shown) [Example 16, 3-(3-Fluorophenyl)-2-[1-(9H-purin-6-ylamino)ethyl]imidazo[1,2-a]pyridine-8-carbonitrile bis(trifluoroacetate)]: the IC50 in test [2] lay within 990 to 2000 nM.
With `Cc1ccc2nc(C(C)Nc3ncnc4[nH]cnc34)c(-c3cccc(F)c3)n2c1` (stereo not shown) [Example 8, N-{1-[3-(3-Fluorophenyl)-6-methylimidazo[1,2-a]pyridin-2-yl]ethyl}-9H-purin-6-amine bis(trifluoroacetate)], the values for the IC50 in test [1] and in test [2] were 1000 to 2500 nM and 500 to 990 nM, respectively.
The matching figures for `Cc1csc2nc(C(C)Nc3ncnc4[nH]cnc34)c(-c3cccc(F)c3)n12` (stereo not shown) [Example 4, N-{1-[5-(3-Fluorophenyl)-3-methylimidazo[2,1-b][1,3]thiazol-6-yl]ethyl}-9H-purin-6-amine bis(trifluoroacetate)]: 1000 to 2500 nM and 500 to 990 nM.
Consider `CC(Nc1ncnc2[nH]cnc12)c1nc2ccccn2c1-c1ccc(F)cc1` (stereo not shown) [Example 24, N-{1-[3-(4-Fluorophenyl)imidazo[1,2-a]pyridin-2-yl]ethyl}-9H-purin-6-amine], for which the IC50 in test [2] lay within 990 to 2000 nM.
Same read-out and setting: to `CC(Nc1ncnc2[nH]cnc12)c1nc2sccn2c1-c1cc(F)cc(F)c1` (stereo not shown) [Example 3, N-{1-[5-(3,5-Difluorophenyl)imidazo[2,1-b][1,3]thiazol-6-yl]ethyl}-9H-purin-6-amine bis(trifluoroacetate)] belongs greater than 2000 nM.
Same read-out and setting: to `Cc1ccccc1-c1c(C(C)Nc2ncnc3[nH]cnc23)nc2ccccn12` (stereo not shown) [Example 20, N-{1-[3-(2-Methylphenyl)imidazo[1,2-a]pyridin-2-yl]ethyl}-9H-purin-6-amine] belongs 990 to 2000 nM.
As to `CC(Nc1ncnc2[nH]cnc12)c1nc2c(F)cccn2c1-c1cccc(F)c1` (stereo not shown) [Example 14, N-{1-[8-Fluoro-3-(3-fluorophenyl)imidazo[1,2-a]pyridin-2-yl]ethyl}-9H-purin-6-amine], the IC50 is 500 to 1000 nM in test [1] and less than 200 nM in test [2].
Turning to `CC(Nc1ncnc2[nH]cnc12)c1nc2ccccn2c1-c1cccc(F)c1` (stereo not shown) [Example 2, N-{1-[3-(3-Fluorophenyl)imidazo[1,2-a]pyridin-2-yl]ethyl}-9H-purin-6-amine], the figures for the IC50 in test [1] and in test [2] were less than 500 nM and less than 200 nM, respectively.
The matching figures for `CC(Nc1ncnc2[nH]cnc12)c1nc2ccc(Cl)cn2c1-c1cccc(F)c1` (stereo not shown) [Example 6, N-{1-[6-Chloro-3-(3-fluorophenyl)imidazo[1,2-a]pyridin-2-yl]ethyl}-9H-purin-6-amine bis(trifluoroacetate)]: less than 500 nM and less than 200 nM.
The matching figures for `Cc1cccc2nc(C(C)Nc3ncnc4[nH]cnc34)c(-c3cc(F)cc(F)c3)n12` (stereo not shown) [Example 1, N-{1-[3-(3,5-Difluorophenyl)-5-methylimidazo[1,2-a]pyridin-2-yl]ethyl}-9H-purin-6-amine]: less than 500 nM and less than 200 nM.
On to `Cc1cn2c(-c3cccc(F)c3)c(C(C)Nc3ncnc4[nH]cnc34)nc2s1` (stereo not shown) [Example 5, N-{1-[5-(3-Fluorophenyl)-2-methylimidazo[2,1-b][1,3]thiazol-6-yl]ethyl}-9H-purin-6-amine], for which the IC50 is 2500 to 5000 nM in test [1] and greater than 2000 nM in test [2].
On the same counts, the results for `CC(Nc1ncnc2[nH]cnc12)c1nc2ccccn2c1-c1cccc(F)c1F` (stereo not shown) [Example 18, N-{1-[3-(2,3-Difluorophenyl)imidazo[1,2-a]pyridin-2-yl]ethyl}-9H-purin-6-amine] are 1000 to 2500 nM and 200 to 500 nM.
The matching figures for `CC(Nc1ncnc2[nH]cnc12)c1nc2c(Cl)cccn2c1-c1cccc(F)c1` (stereo not shown) [Example 11, N-{1-[8-Chloro-3-(3-fluorophenyl)imidazo[1,2-a]pyridin-2-yl]ethyl}-9H-purin-6-amine bis(trifluoroacetate)]: 500 to 1000 nM and less than 200 nM.
For `Cc1cccn2c(-c3cccc(F)c3)c(C(C)Nc3ncnc4[nH]cnc34)nc12` (stereo not shown) [Example 10, N-{1-[3-(3-Fluorophenyl)-8-methylimidazo[1,2-a]pyridin-2-yl]ethyl}-9H-purin-6-amine bis(trifluoroacetate)], the IC50 in test [1] is less than 500 nM; in test [2] it was less than 200 nM.
As to `CC(Nc1ncnc2[nH]cnc12)c1nc2cc(Cl)ccn2c1-c1cccc(F)c1` (stereo not shown) [Example 13, N-{1-[7-Chloro-3-(3-fluorophenyl)imidazo[1,2-a]pyridin-2-yl]ethyl}-9H-purin-6-amine], the IC50 in test [2] was less than 200 nM.
Take `CC(Nc1ncnc2[nH]cnc12)c1nc2ccccn2c1-c1cc(F)ccc1F` (stereo not shown) [Example 21, N-{1-[3-(2,5-Difluorophenyl)imidazo[1,2-a]pyridin-2-yl]ethyl}-9H-purin-6-amine]: the figures for the IC50 in test [1] and in test [2] were 2500 to 5000 nM and less than 200 nM, respectively.
The matching figures for `CC(Nc1ncnc2[nH]cnc12)c1nn2ccccc2c1-c1cc(F)cc(F)c1` (stereo not shown) [Example 25, N-{1-[3-(3,5-Difluorophenyl)pyrazolo[1,5-a]pyridin-2-yl]ethyl}-9H-purin-6-amine trifluoroacetate]: 500 to 1000 nM and less than 200 nM.
For the compound `CC(Nc1ncnc2[nH]cnc12)c1nc2c(C(F)(F)F)cccn2c1-c1cccc(F)c1` (stereo not shown) [Example 15, N-{1-[3-(3-Fluorophenyl)-8-(trifluoromethyl)imidazo[1,2-a]pyridin-2-yl]ethyl}-9H-purin-6-amine bis(trifluoroacetate)], the IC50 in test [2] lay within 990 to 2000 nM.
`CC(Nc1ncnc2[nH]cnc12)c1nc2ccccn2c1-c1cc(F)cc(F)c1` (stereo not shown) [Example 23, N-{1-[3-(3,5-Difluorophenyl)imidazo[1,2-a]pyridin-2-yl]ethyl}-9H-purin-6-amine]: the 50% inhibitory concentration (IC50) in test [1] lay within 1000 to 2500 nM; in test [2], 200 to 500 nM.
On the same counts, the results for `Cc1ccn2c(-c3cccc(F)c3)c(C(C)Nc3ncnc4[nH]cnc34)nc2c1` (stereo not shown) [Example 9, N-{1-[3-(3-Fluorophenyl)-7-methylimidazo[1,2-a]pyridin-2-yl]ethyl}-9H-purin-6-amine bis(trifluoroacetate)] are greater than 5000 nM and greater than 2000 nM.
For `Cc1ccc(-c2c(C(C)Nc3ncnc4[nH]cnc34)nc3ccccn23)cc1` (stereo not shown) [Example 17, N-{1-[3-(4-Methylphenyl)imidazo[1,2-a]pyridin-2-yl]ethyl}-9H-purin-6-amine], the IC50 in test [2] lay within 500 to 990 nM.
For the compound `Cc1cccc(-c2c(C(C)Nc3ncnc4[nH]cnc34)nc3ccccn23)c1` (stereo not shown) [Example 22, N-{1-[3-(3-Methylphenyl)imidazo[1,2-a]pyridin-2-yl]ethyl}-9H-purin-6-amine], the IC50 in test [2] lay within 500 to 990 nM.

For the origin of these results see US9403847B2, “Substituted heteroaryl fused derivatives as P13K inhibitors” (Incyte Corporation, priority 2009, dated 2016).
